Experiments:
Assay in all cases: Validation of gRNAs: Surveyor digest, gel electrophoresis, densitometry in HEK293T cells
Format in all cases: cell-based, human
CCR5 = CCR5 target gene site, 3 days
Method: (§1) HEK293T cells were plated out at a density of 1×10^5 cells per well in a 24 well plate. 150 uL of Opti-MEM medium was combined with 1.5 ug of gRNA plasmid, 1.5 ug of Cas9 plasmid. Another 150 uL of Opti-MEM medium was combined with 5 ul of Lipofectamine 2000 Transfection reagent (Invitrogen). The solutions were combined together and incubated for 15 minutes at room temperature. The DNA-lipid complex was added dropwise to wells of the 24 well plates. Cells were incubated for 3 days at 37° C. and genomic DNA was collected using the GeneJET Genomic DNA Purification Kit (Thermo Scientific). Activity of the gRNAs was quantified by a Surveyor Digest, gel electrophoresis, and densitometry (FIG. 60 and FIG. 61) (Guschin, D. Y., et al., “A Rapid and General Assay for Monitoring Endogenous Gene Modification,” Methods in Molecular Biology, 649: 247-256 (2010)).

PD1 = PD1 target gene site, 3 days
Method: HEK293T cells were plated out at a density of 1×10^5 cells per well in a 24 well plate. 150 uL of Opti-MEM medium was combined with 1.5 ug of gRNA plasmid, 1.5 ug of Cas9 plasmid. Another 150 uL of Opti-MEM medium was combined with 5 ul of Lipofectamine 2000 Transfection reagent (Invitrogen). The solutions were combined together and incubated for 15 minutes at room temperature. […] Cells were incubated for 3 days at 37° C. and genomic DNA was collected using the GeneJET Genomic DNA Purification Kit (Thermo Scientific). Activity of the gRNAs was quantified by a Surveyor Digest, gel electrophoresis, and densitometry (FIG. 60 and FIG. 61) (Guschin, D. Y., et al., “A Rapid and General Assay for Monitoring Endogenous Gene Modification,” Methods in Molecular Biology, 649: 247-256 (2010)).

CTLA4 = CTLA4 target gene site, 3 days
Method: as §1

Molecule: CCR5 gRNA#2: sense primer SEQ ID 63 CACCGTCATCCTCCTGACAATCGAT
- efficiency of Cas9/gRNA pair in creating double strand break (DSB), percent of gene modifications (CCR5): >60%

Molecule: PD1 gRNA#2: sense primer SEQ ID 35 CACCGCCTGCTCGTGGTGACCGAAG
- efficiency of Cas9/gRNA pair in creating double strand break (DSB), percent of gene modifications (PD1): >60%

B1: CTLA4 gRNA#3: sense primer (SEQ ID printed 'Si') … (nucleic acid)
guide: GCTAGATGATTCCATCTGCACGUUUUAGAGCUAGAAAUAGCAAGUUAAAAUAAGGCUAGUCCGUUAUCAACUUGAAAAAGUGGCACCGAGUCGGUGCUUUU
modifications: 2'-O-methyl 3'-phosphorothioate modifications added, positions not given here
- efficiency of Cas9/gRNA pair in creating double strand break (DSB), percent of gene modifications (CTLA4): 39.33%
